Assay results published in patent publication US20120157478A1, “Hair Care Compositions and Methods to Improve Hair Appearance” (priority 2010, published 2012).

Tested on: primary human dermal papilla cells
Assay: Survival of metabolically stressed primary human dermal papilla cells (ATP, Cell Titer Glo)
Type: cell-based
Conditions: for Survival: 48 hr stress, Vehicle = 1.00; for benefit in increasing the survival of stressed dermal papilla cells (in words): additional testing, individual components versus mixture of the three
Source text: The dermal papilla, in normal human hair, is the control center for hair diameter and growth. Increasing survival of dermal papilla cells in situ leads to increased hair diameter and to a longer anagen phase which results in longer hair, a higher hair density, and potentially delayed emergence of gray hair. The appearance of this hair results in healthier, younger looking hair. Accordingly, an increase in survival of dermal papilla cells correlates with healthier hair showing an increase in hair diameter, longer hair, higher hair density, and a delayed on-set of gray hair.
Primary human dermal papilla cells were metabolically stressed for 48 hours in reduced standard tissue culture media. During this period of stress the cells were treated with the mixtures below. After 48 hr the metabolic activity of the cells was measured by the amount of ATP using the Cell Titer Glo™ kit (Promega).

Compound: Cn1c(=O)c2c(ncn2C)n(C)c1=O [Caffeine, caffeine]
- Survival (Caffeine 0.02%, first series): 0.94
- Survival (Caffeine 0.05%, second series): 0.98
- benefit in increasing the survival of stressed dermal papilla cells (in words): little benefit

Compound: NC(=O)c1cccnc1 [Niacinamide, niacinamide]
- Survival (Niacinamide 0.5 mM, second series): 1.02
- Survival (Niacinamide 1.5 mM, first series): 0.71
- benefit in increasing the survival of stressed dermal papilla cells (in words): little benefit

Compound: CC(C)(CO)[C@@H](O)C(=O)NCCCO [Panthenol, panthenol]
- Survival (Panthenol 0.03%, first series): 1.02
- Survival (Panthenol 0.3%, second series): 0.75
- benefit in increasing the survival of stressed dermal papilla cells (in words): little benefit

Compound: O=c1cc(-c2ccc(O)cc2)oc2cc(O)cc(O)c12 [apigenin, 5,7-Dihydroxy-2-(4-hydroxyphenyl)-4H-1-benzopyran-4-one]
- increase in the hair follicle cells that survived (metabolically stressed 48 hr in reduced standard tissue culture media, ATP by Cell Titer Glo, concentrations not given): 122%
